Patent US11986463B2, “Combination therapy for the treatment of gastrointestinal stromal tumor” (Deciphera Pharmaceuticals, LLC, priority 2018, dated 2024)
Where two headings read alike, the source gives them in different places. Each block holds one compound with its values, some of them ahead of it.

Tests used:
[1] = test system: GIST-T1/T670I imatinib resistant cells; test: Colony outgrowth assay, GIST-T1/T670I; assay type: cell-based
Text: (§1) The outgrown cell colonies were stained with crystal violet and counted.

[2] = test system: GIST-T1/D816E imatinib resistant cells; test: Colony outgrowth assay, GIST-T1/D816E; assay type: cell-based
Text: as §1

[3] = test system: GIST-T1 (57 bp exon 11 deletion) imatinib sensitive cells; test: Colony outgrowth assay, GIST-T1; assay type: cell-based
Text: as §1

[4] = target: T1, human efflux transporter BCRP (Homo sapiens, UniProt Q9UNQ0); test: BCRP vesicular transport inhibition assay; assay type: biochemical
T1 construct: inside-out membrane vesicles
T1 sequence (Q9UNQ0 1-655): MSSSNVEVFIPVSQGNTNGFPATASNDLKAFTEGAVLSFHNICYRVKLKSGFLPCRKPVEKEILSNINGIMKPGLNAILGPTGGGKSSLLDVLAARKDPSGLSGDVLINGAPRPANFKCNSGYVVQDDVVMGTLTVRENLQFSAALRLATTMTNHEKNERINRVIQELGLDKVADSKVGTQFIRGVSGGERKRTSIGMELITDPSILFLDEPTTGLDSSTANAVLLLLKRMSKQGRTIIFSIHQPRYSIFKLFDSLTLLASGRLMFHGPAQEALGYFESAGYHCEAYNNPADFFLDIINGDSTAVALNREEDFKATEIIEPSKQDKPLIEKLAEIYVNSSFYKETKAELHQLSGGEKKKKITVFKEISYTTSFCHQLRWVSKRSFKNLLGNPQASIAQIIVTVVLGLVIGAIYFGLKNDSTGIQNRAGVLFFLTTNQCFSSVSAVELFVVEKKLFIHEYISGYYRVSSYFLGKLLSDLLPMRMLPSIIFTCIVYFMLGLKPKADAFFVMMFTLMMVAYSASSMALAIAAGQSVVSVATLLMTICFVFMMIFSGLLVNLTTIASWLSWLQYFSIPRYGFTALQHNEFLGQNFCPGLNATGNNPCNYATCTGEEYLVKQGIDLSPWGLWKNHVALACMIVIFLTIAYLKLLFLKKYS
Description: (§2) The IC50 value was estimated to be approximately 0.04 μM.

BCRP = target: T2, BCRP (Homo sapiens, UniProt Q9UNQ0); test: BCRP vesicular transport inhibition assay; assay type: biochemical; conditions: human; 0.04 μM, lowest concentration tested; read-out: inhibition of the transport of the probe substrate of BCRP
T2 construct: inside-out membrane vesicles
T2 sequence (Q9UNQ0 1-655): T1 sequence (Q9UNQ0 1-655)
Description: as §2

GIST T1 xenograft = GIST T1 xenograft model; assay type: in vivo, mice; conditions: for mice with partial tumor regression during the dosing period / mice with complete tumor regression during the dosing period: days 10-27; for mice remaining in partial tumor regression at the end of study: end of study day 66
Description: The GIST T1 xenograft model was performed in compliance with all the laws, regulations and guidelines of the National Institutes of Health (NIH) and with the approval of the Animal Care and Use Committee of MI Bioresearch (Ann Arbor, MI), an AAALAC accredited facility. All mice had food and water ad libitum. […] Female Envigo nude mice (HsdCrl:Athymic Nude-NU-Foxn1nu; 6-7 weeks old) were inoculated subcutaneously just below the right high axilla with five million cells in Dulbecco's Phosphate Buffered Saline mixed with an equal volume of Matrigel, using a 27 gauge needle and syringe. When tumor burdens reached 117 mm^3 on average on day 10, mice were randomly assigned into groups such that the mean tumor burden for all groups was within 10% of the overall mean tumor burden for the study population. […] On Day 27, all animals were placed on control diet to monitor tumor regrowth. Tumor volume and body weight were measured thrice weekly. Tumor burden (mg) was estimated from caliper measurements by the formula: tumor burden (mg=mm^3)=(length×width^2)/2.

[5] = test system: Ba/F3 cells transformed with oncogenic KIT V560D mutant; conditions: 100 nM, 250 nM or 500 nM imatinib single agent
Description: A saturation mutagenesis study was performed in Ba/F3 cells transformed with oncogenic KIT V560D mutant. DNA nicking was induced by N-ethyl-N-nitrosourea (ENU) for 18 hours to generate additional mutations in the KIT gene or other genes in a random fashion. Assays were conducted in 6 well plates with 100 cells seeded per well. […] These cells were subjected to PCR and sequencing of the KIT gene to determine the presence of a resistant secondary mutation induced by the ENU treatment.

[6] = low dose Compound A approximately 25 mg/kg/day in diet, trametinib 0.5 mg/kg BID where combined

IC50 ([4]; 7 concentrations, vesicular transport inhibition, read-out: IC50, BCRP (estimated)): ~40 nM
IC50 ([4]; read-out: IC50, BCRP efflux transporter): 40 nM
inhibition at 0.04 µM (BCRP): 44%
SMILES: CCn1c(=O)c(-c2cc(NC(=O)Nc3ccccc3)c(F)cc2Br)cc2cnc(NC)cc21 [Compound A, 1-[4-bromo-5-[1-ethyl-7-(methylamino)-2-oxo-1,2-dihydro-1,6-naphthyridin-3-yl]-2-fluorophenyl]-3-phenylurea]
GIST T1/T670I colony outgrowth ([1]; Compound A 100 nM or 250 nM single agents, dose dependent (FIG. 10C)): 78-89 % of vehicle control
GIST T1/D816E colony outgrowth ([2]; Compound A 50 nM, 100 nM or 250 nM single agent (FIG. 14B)): 81-93 % of vehicle control
GIST T1 colony outgrowth ([3]; Compound A single agents (FIG. 14A)): 37-41 % of vehicle control
mice with partial tumor regression during the dosing period (GIST T1 xenograft; high dose Compound A approximately 100 mg/kg/day in diet): 4/10
mice with complete tumor regression during the dosing period (GIST T1 xenograft; high dose Compound A approximately 100 mg/kg/day in diet, trametinib 0.5 mg/kg BID where combined): 6/10
mice remaining in partial tumor regression at the end of study (GIST T1 xenograft; high dose Compound A approximately 100 mg/kg/day, trametinib 0.5 mg/kg BID where combined): 1/10
mice with complete tumor regression during the dosing period (GIST T1 xenograft; [6]): 2/10
mice with partial tumor regression during the dosing period (GIST T1 xenograft; [6]): 6/10
mice remaining in partial tumor regression at the end of study (GIST T1 xenograft; low dose Compound A approximately 25 mg/kg/day, trametinib 0.5 mg/kg BID where combined): 2/10

SMILES: Cc1ccc(NC(=O)c2ccc(CN3CCN(C)CC3)cc2)cc1Nc1nccc(-c2cccnc2)n1 [imatinib, reference compound]
reduction of GIST-T1/T670I colonies ([1]; imatinib 500 nM single agent (FIG. 10C)): does not show any reduction of colonies
outgrowth of resistant secondary KIT mutations [5]: T670I, K807E, and/or D816V imatinib-resistant secondary KIT mutants were identified

SMILES: CCn1c(=O)c(-c2cc(NC(=O)Nc3ccccc3)c(F)cc2Br)cc2cnc(N)cc21 [Compound B, 1-(5-(7-amino-1-ethyl-2-oxo-1,2-dihydro-1,6-naphthyridin-3-yl)-4-bromo-2-fluorophenyl)-3-phenylurea]
GIST T1/T670I colony outgrowth ([1]; Compound B 50 nM, 100 nM, 250 nM single agents (FIG. 9C)): 75-78 % of vehicle control
GIST T1/T670I colony outgrowth ([1]; Compound B 100 nM or 250 nM single (FIG. 13C)): 75-78 % of vehicle control
GIST T1/T670I colony outgrowth ([1]; Compound B 100 nM or 250 nM single agent (FIG. 11C)): 72-78 % of vehicle control
GIST T1/D816E colony outgrowth ([2]; Compound B 50 nM, 100 nM or 250 nM single agent (FIG. 9B)): 59-84 % of vehicle control
GIST T1/D816E colony outgrowth ([2]; Compound B 50 nM, 100 nM or 250 nM single agent (FIG. 15)): 52-95 % of vehicle control
GIST T1/D816E colony outgrowth ([2]; Compound B 100 nM or 250 nM single agent (FIG. 13B)): 58-84 % of vehicle control
GIST T1/D816E colony outgrowth ([2]; Compound B 100 nM or 250 nM single agents (FIG. 11B)): 74-83 % of vehicle control
reduction of GIST T1 colony outgrowth compared to vehicle control ([3]; Compound B single agent (FIG. 9A)): 42-54%
GIST T1 colony outgrowth ([3]; Compound B single agent (FIG. 13A)): 42-54 % of vehicle control
GIST T1 colony outgrowth ([3]; each concentration of Compound B as a single agent (FIG. 11A)): 27-31 % of vehicle control
